Data as given in US11311609B2, “Regulating chimeric antigen receptors” (DANA-FARBER CANCER INSTITUTE, INC., priority 2017, dated 2022).

What was measured:
Assay type in all cases: cell-based
[1] = tested on: FKBP* fused to Nluc; experiment: Nluc/Fluc luciferase signal ratio assay of FKBP* degradation in 293FT cells; conditions: wild type or CRBN-/- 293FT cells; indicated concentrations, 4 hours
Procedure: FIG. 7A and FIG. 7B are graphs measuring the activity of a panel of dFKBP heterobifunctional compounds in cells expressing FKBP* fused to Nluc. Degradation of FKBP* is measured as a signal ratio (Nluc/Fluc) between NANOluc and firefly luciferase from the same multicistronic transcript in wild type (FIG. 7A) or CRBN −/− (FIG. 7B) 293FT cells treated with indicated concentrations of dFKBPs for 4 hours. A decrease in the signal ratio indicates FKBP* (Nluc) degradation. Additional experimental details are provided in Example 4.
In an effort to identify potent and selective dFKPB heterobifunctional compounds, high throughput measurements of targeted FKBP* degradation were measured by surrogate levels of luciferase. Here, FKBP* is exogenously expressed as a multicistronic transcript with two types of luciferase: nano luciferase (NLuc) and firefly luciferase (FLuc) that allow for cell normalized quantification of FKBP* protein levels. Degradation of FKBP* is measured as a signal ratio (Nluc/Fluc) in wild type (FIG. 7A) or CRBN −/− (FIG. 7B) 293FT cells treated with indicated concentrations of dFKBPs for 4 hours.

[2] = tested on: FKBP*-KRASG12V; experiment: Immunoblot of FKBP*-KRASG12V degradation in NIH3T3 cells; conditions: NIH3T3 cells; 500 nM, indicated time
Procedure: (§1) FIG. 19 is an immunoblot of NIH3T3 cells expressing KRASG12V allele fused to FKBP* in the N-terminus or C-terminus. Cells were treated with 500 nM dFKBP7 for the indicated time. Cells were harvested and immunoblotted to measure degradation of FKBP*-KRASG12V and downstream surrogates of KRAS signaling (e.g. pMEK and pAKT).
(§2) Cells were harvested and immunoblotted to measure degradation of FKBP*-KRASG12V and downstream surrogates of KRAS signaling (e.g. pMEK and pAKT).
as §2, §2
Cells were treated with 500 nM dFKBP7 for the indicated time. Cells were harvested and immunoblotted to measure degradation of FKBP*-KRAS and downstream surrogates of KRAS signaling (e.g. pMEK and pAKT).
(§3) Cells were harvested and immunoblotted to measure degradation of FKBP*-KRAS and downstream surrogates of KRAS signaling (e.g. pMEK and pAKT).
as §3
To evaluate the kinetic control of targeted degradation of dTAG-KRAS, dFKBP13 was administered by increased duration. […]

[3] = tested on: KRAS signaling (pMEK and pAKT); experiment: Immunoblot of downstream surrogates of KRAS signaling in NIH3T3 cells expressing FKBP*-KRASG12V; conditions: NIH3T3 cells, N-terminal dTAG-KRAS; 500 nM, indicated time
Procedure: as §1
(§4) FIG. 20 is an immunoblot of NIH3T3 cells expressing FKBP* fused to the N-terminus of KRASG12V treated with 1 uM of the indicated dFKBP heterobifunctional compounds for 24 hours. Cells were harvested and immunoblotted to measure degradation of FKBP*-KRASG12V and downstream surrogates of KRAS signaling (e.g. pMEK and pAKT).
as §4, with “21” for “20”, “with” for “with 1 uM of”, “concentrations of dFKBP13” for “dFKBP heterobifunctional compounds”
FIG. 22 is an immunoblot of NIH3T3 cells expressing FKBP* fused to the N-terminus of KRASG12V treated with 1 uM dFKBP13 for the indicated time. Cells were harvested and immunoblotted to measure degradation of FKBP*-KRASG12V and downstream surrogates of KRAS signaling (e.g. pMEK and pAKT).
Cells were treated with 500 nM dFKBP7 for the indicated time. […]

SMILES: CC[C@H](C(=O)N1CCCC[C@H]1C(=O)O[C@H](CCc1ccc(OC)c(OC)c1)c1cccc(OCC(=O)NCCCOCCOCCOCCCNC(=O)COc2cccc3c2C(=O)N(C2CCC(=O)NC2=O)C3=O)c1)c1cc(OC)c(OC)c(OC)c1 (stereo partly drawn) [dFKBP7]
- FKBP* (Nluc) degradation, signal ratio Nluc/Fluc [1]: effectively degrade FKBP* in a cereblon dependent manner
- Degradation of N-terminal dTAG-KRAS [2]: potent degradation
- p-AKT signal [3]: downstream decrease in p-AKT signal
